Patent US12622872B2, “Process for the preparation of sterile ophthalmic aqueous fluticasone propionate form a nanocrystals suspensions” (Nicox Ophthalmics, Inc., priority 2019, dated 2026)

What was measured:
[1] = In vitro dissolution test (compartment diffusion through dialysis membrane, sink condition); type: physicochemical
Protocol: Dissolution profiles of nanocrystals of Fluticasone propionate form A of two nanosuspensions of the invention and of Fluticasone propionate form 1 micronized were performed using a dissolution method.
The study was performed using a compartment diffusion analysis through a dialysis membrane and sink condition. The sink condition was achieved through the use of a receptor fluid containing 30 mM phosphate buffer, pH 7.4 with 5% HPβCD cyclodextrins and also by a complete replacement of the buffer every 24 hours to stay below the saturation point. The saturation point was estimated to be 5 μg/g under those experimental conditions and the measurements performed as well as the buffer replacement have shown a maximum concentration of 1.5 μg/g. The study was conducted at a temperature of 37° C. The details of the dissolution test method are provided below:
A 5-fold dilution with the formulation vehicle (placebo solution containing all the formulation excipients including the surfactants) of two 0.1% w/w Fluticasone propionate form A nanosuspensions was conducted to obtain a final concentration of 0.02% w/w Fluticasone propionate inside the dialysis device.
Fluticasone propionate form 1 micronized was suspended in the same phosphate buffer used in the receiving compartment of the dialysis system.
Fluticasone propionate release was carried at 1-2 RPM. […]
These aliquots were immediately centrifuged and the measurements were performed by HPLC

[2] = 14-day repeated dose study, plasma toxicokinetics; design: species or system Beagle dogs; conditions: dog, in vivo
Source text: The purpose of this study was to evaluate the toxicokinetic of fluticasone propionate Form A nanosuspensions of the invention (see Table 10 below) administered via topical application directly to the rim (margin) of upper and lower eyelids of both eyes of Beagle dogs.
Fifty naïve Beagle dogs (25 males and 25 females), approximately 5-6 months old and weighing 5.7 to 8.8 kg for males and females at the outset of the study were assigned to treatment groups (groups 1-4) and to vehicle group.
Male and female Beagle dogs were dosed with fluticasone propionate at 1.6, 9.6, and 32 μg/day (bilateral QD topical application) or at 64 μg/day (bilateral BID topical application) via eye lid applicator directly to the upper and lower eyelids of both eyes once or twice daily (minimum of 6 hours between doses) for 14 consecutive days.
Blood for toxicokinetic evaluation was collected from all animals at selected time points on Days 1 and 14.

[3] = 1 h, second nanosuspension (Table 8)
[4] = 3 h, second nanosuspension (Table 8)
[5] = 5 h, second nanosuspension (Table 8)
[6] = 19 h, second nanosuspension (Table 8)

Structure (SMILES)	% Dissolution Average % ([1]; 1 h) [%]	% Dissolution Tube #1 ([1]; 1 h) [%]	% Dissolution Tube #2 ([1]; 1 h) [%]	% Dissolution Tube #3 ([1]; 1 h) [%]	% Dissolution Average % ([1]; 3 h) [%]	% Dissolution Tube #1 ([1]; 3 h) [%]	% Dissolution Tube #2 ([1]; 3 h) [%]	% Dissolution Tube #3 ([1]; 3 h) [%]	% Dissolution Average % ([1]; 5 h) [%]	% Dissolution Tube #1 ([1]; 5 h) [%]	% Dissolution Tube #2 ([1]; 5 h) [%]	% Dissolution Tube #3 ([1]; 5 h) [%]	further results
CCC(=O)O[C@]1(C(=O)SCF)[C@H](C)C[C@H]2[C@@H]3C[C@H](F)C4=CC(=O)C=C[C@]4(C)[C@@]3(F)[C@@H](O)C[C@@]21C [Fluticasone propionate form A nanocrystals]	0.0	0.0	0.0	0.0	0.8	0.2	1.4	0.7	2.2	1.3	2.8	2.4	% Dissolution Average % [1, 3]: 0.0%; % Dissolution Tube #1 [1, 3]: 0.0%; % Dissolution Tube #2 [1, 3]: 0.0%; % Dissolution Tube #3 [1, 3]: 0.0%; % Dissolution Average % [1, 4]: 0.7%; % Dissolution Tube #1 [1, 4]: 0.6%; % Dissolution Tube #2 [1, 4]: 0.5%; % Dissolution Tube #3 [1, 4]: 0.8%; % Dissolution Average % [1, 5]: 2.3%; % Dissolution Tube #1 [1, 5]: 2.4%; % Dissolution Tube #2 [1, 5]: 2.0%; % Dissolution Tube #3 [1, 5]: 2.6%; % Dissolution Average % [1, 6]: 19.0%; % Dissolution Tube #1 [1, 6]: 19.0%; % Dissolution Tube #2 ([1]; 24 h): 24.0%; % Dissolution Tube #3 ([1]; 72 h): 74.0%; dissolution profile compared with Fluticasone propionate form 1 micronized material ([1]; tables 7-9): similar
CCC(=O)O[C@]1(C(=O)SCF)[C@H](C)C[C@H]2[C@@H]3C[C@H](F)C4=CC(=O)C=C[C@]4(C)[C@@]3(F)[C@@H](O)C[C@@]21C [Fluticasone Propionate, fluticasone propionate]	–	–	–	–	–	–	–	–	–	–	–	–	maximum concentration in the receptor fluid ([1]; receptor fluid 30 mM phosphate buffer, pH 7.4 with 5% HPβCD, 37° C.): 1.5 µg/g; Dose dependence of exposure [2]: dose-dependent; Gender-related differences in exposure [2]: no discernable gender-related differences
CCC(=O)O[C@]1(C(=O)SCF)[C@H](C)C[C@H]2[C@@H]3C[C@H](F)C4=CC(=O)C=C[C@]4(C)[C@@]3(F)[C@@H](O)C[C@@]21C [Micronized Fluticasone propionate form 1, fluticasone propionate]	0.0	0.0	0.0	0.0	0.7	0.8	0.5	0.9	2.6	2.9	1.9	3.0	% Dissolution Tube #2 ([1]; 48 h): 44.0%
